Data published in US7332615B2, “Hydrophilic analogs of 4,8-dihydrobenzodithiophene-4,8-diones as anticancer agents” (Industrial Technology Research Institute, priority 2004, dated 2008).
Where a name gives a salt, the structure may show the parent alone. Read-outs that look alike come from different tables or passages of the source.

What was measured:
Water solubility = assay type: physicochemical; conditions: in H2O; for solubility: water
lung carcinoma (A-549) = test: Cytotoxicity Assays Method C, A-549; assay type: cell-based; conditions: read-out: IC50 A549
[1] = tested on: epidermoid carcinoma of the nasopharynx (KB); test: Cytotoxicity Assays Method C, KB; assay type: cell-based; conditions: read-out: IC50 KB
[2] = tested on: p-gp-expressing epidermoid carcinoma of the nasopharynx (KB-VIN); test: Cytotoxicity Assays Method C, KB-VIN; assay type: cell-based; conditions: for IC50: 50% reduction in cell number after 72 hr of incubation
Excerpt: Cytotoxicity Assays Method C (KB, KB-VIN, AS49, HCT-8, PC-3) [K. H. Lee et. al. Planta Med. 54, 308-312 (1998), Monk A et. al. J. Natl. Cancer Inst. 83, 757-766 (1991).] The cell lines included epidermoid caninoma of the nasopharynx (KB), p-gp-expressing epidermoid caninoma of the nasopharynx (KB-VIN), lung carcinoma (A-549), ileocecal carinoma (HCT-8) and prostate cancer (PC-3) cell lines.

prostate cancer (PC-3) = test: Cytotoxicity Assays Method C, PC-3; assay type: cell-based; conditions: for IC50: read-out: IC50 PC-3
[3] = tested on: ileocecal carcinoma (HCT-8); test: Cytotoxicity Assays Method C, HCT-8; assay type: cell-based; conditions: read-out: IC50 HCT-8
[4] = tested on: Human promyeloid leukemia HL-60 cells; test: Cytotoxicity Assays Method B (MTT proliferation assay), HL-60; assay type: cell-based; conditions: Homo sapiens, read-out: IC50 (concentration at which 50% of the cells are inhibited from growing)
Procedure: Cytotoxicity Assays Method B (HL-60) [H. M. Chen et al. Chin. Pharm. J. 53, 157-167 (2001)]
Human promyeloid leukemia HL-60 cells were obtained from the American Type
Culture Collection (Manassas, Va., USA) and the Culture Collection and Research Center(CCRC) (Tai wan, ROC). Human promyeloid leukemia HL-60 cells were cultured in suspension in RPMI-1640 medium (GIBCO, Grand Is land, USA), containing 10% fetal bovine se rum (GIBCO, Grand Is land, USA), 100 unit/mL penicillin, […] streptomycin and 1% L-glutamine at 37° C. in a humidified atmosphere of 5% CO2 in air. Cells were split every day to maintain the cell numbers between 2−5×10^5/mL. Cell numbers were assessed by the standard procedure of leukocyte counting using a hemocytometer and cell viability was checked by the ability of cells to exclude Trypan blue.
Cellular proliferation was determined by the MTT [3-(4,5-dimethylthiazol-2-yl)-2,5-diphenyltetrazolium bromide] as say. Briefly, […] of MTT (5 mg/mL) was added to each well of 96-well plates containing 1×10^5 cells after treatment with different concentrations of samples for 4 days. The reaction was stopped after 2 h by adding […] of 0.04 N HCl in isopropanol and the OD570 nm was determined by a minicolorimetric reader. Each concentration treatment was performed in triplicate.

[5] = A549, 50% reduction in cell number after 72 hr of incubation
[6] = KB, 50% reduction in cell number after 72 hr of incubation
[7] = Homo sapiens, A549, 72 h, A549, 50% reduction in cell number after 72 hr of incubation
[8] = 72 h, PC-3, 50% reduction in cell number after 72 hr of incubation
[9] = Homo sapiens, HCT-8, 72 h, HCT-8, 50% reduction in cell number after 72 hr of incubation
[10] = 72 h, KB, 50% reduction in cell number after 72 hr of incubation
[11] = PC-3, 50% reduction in cell number after 72 hr of incubation
[12] = HCT-8, 50% reduction in cell number after 72 hr of incubation

solubility (Water solubility)	SMILES	IC50 (lung carcinoma (A-549); [5])	IC50 [2]	IC50 (lung carcinoma (A-549); [7])	IC50 (prostate cancer (PC-3); [8])	IC50 [3, 9]	IC50 [1, 10]	also measured
–	CC(O)c1cc2c(s1)C(=O)c1sccc1C2=O (stereo not drawn) [Compound 1b, reference compound]	–	–	–	–	–	–	Solubility (water solubility) (Water solubility): 9.6 × 10^−3 mg/1 mL H2O
–	COc1cccc2c1C(=O)c1c(O)c3c(c(O)c1C2=O)C[C@@](O)(C(=O)CO)C[C@@H]3O[C@H]1C[C@H](N)[C@H](O)[C@H](C)O1 [Doxorubincin, reference compound]	180 nM	4970 nM	–	–	–	–	IC50 [1, 6]: 180 nM
–	CC(OC(=O)CCCC(=O)O)c1cc2c(s1)C(=O)c1sccc1C2=O (stereo not drawn) [IIb-2, Mono-[1-(4,8-dioxo-4,8-dihydrobenzo[1,2-b:5,4-b′]dithiophen-2-yl)-ethyl]pentanedioate]	–	50 nM	–	–	–	–	IC50 (lung carcinoma (A-549); Homo sapiens, A549, 72 h): 110 nM; IC50 (prostate cancer (PC-3); 72 h): 60 nM; activity against the androgen-insensitive prostate cancer cell line PC-3 (in words) (prostate cancer (PC-3); PC-3, summary of Table 3): potent activity; IC50 ([3]; Homo sapiens, HCT-8, 72 h): 190 nM; IC50 ([1]; 72 h): 30 nM; activity against the MDR cell line KB-VIN (in words) ([2]; summary of Table 3): potent activity; IC50 ([4]; HL-60, 96 h): 250 nM
–	O=C(O)COCc1cc2c(s1)C(=O)c1sccc1C2=O [IVa, 4,8-dioxo-4,8-dihydroxybenzo[1,2-b:5,4-b′]-dithiophen-2-yl-methoxy acetic acid]	–	–	2460 nM	1050 nM	2070 nM	3610 nM	IC50 ([2]; Homo sapiens, KBVIN, 72 h): 2460 nM
≥ 9600 µg/mL	O=C([O-])COCc1cc2c(s1)C(=O)c1sccc1C2=O.[Na+] [IVa-Na, Sodium 4,8-dioxo-4,8-dihydroxybenzo[1,2-b:5,4-b′]-dithiophen-2-yl-methoxy acetate]	–	–	–	–	–	–	–
≥ 3200 µg/mL	CC(OCC(=O)[O-])c1cc2c(s1)C(=O)c1sccc1C2=O.[Na+] (stereo not drawn) [IVb-Na, Sodium 1-(4,8-dioxo-4,8-dihydroxybenzo[1,2-b:5,4b′]-dithiophen-2-yl-ethoxy)-acetate]	–	–	–	–	–	–	–
≥ 6000 µg/mL	CC(OCC(=O)[O-])c1cc2c(s1)C(=O)c1ccsc1C2=O.[Na+] (stereo not drawn) [IX-Na, Sodium 1-(4,8-dioxo-4,8-dihydroxybenzo[1,2-b:4,5-b′]-dithiophen-2-yl-ethoxy)-acetate]	260 nM	1000 nM	–	–	–	–	IC50 (prostate cancer (PC-3); [11]): 140 nM; IC50 [3, 12]: 220 nM; IC50 [1, 6]: 1110 nM
–	CC[C@]1(O)C[C@H]2CN(CCc3c([nH]c4ccccc34)[C@@](C(=O)OC)(c3cc4c(cc3OC)N(C=O)[C@H]3[C@@](O)(C(=O)OC)[C@H](OC(C)=O)[C@]5(CC)C=CCN6CC[C@]43[C@@H]65)C2)C1 [VCR, reference compound]	40 nM	5330 nM	–	–	–	–	IC50 [1, 6]: 10 nM
–	COc1cc([C@@H]2c3cc4c(cc3[C@@H](O[C@@H]3O[C@@H]5CO[C@@H](C)O[C@H]5[C@H](O)[C@H]3O)[C@H]3COC(=O)[C@H]23)OCO4)cc(OC)c1O [VP-16, reference compound]	1360 nM	> 10000 nM	–	–	–	–	IC50 [1, 6]: 4760 nM
–	O=C(O)c1cc2c(s1)C(=O)c1sccc1C2=O [XI, 4,8-dioxo-4,8-dihydrobenzo-[1,2-b;5,4-b′]dithiophene-2-carboxylic acid]	30300 nM	–	–	–	37200 nM	38300 nM	IC50 (prostate cancer (PC-3); [11]): 13400 nM; IC50 ([2]; Homo sapiens, KBVIN, 72 h): 38300 nM
≥ 10000 µg/mL	O=C(O)c1cc2c(s1)C(=O)c1sccc1C2=O [XI-NH4, Ammonium 4,8-dioxo-4,8-dihydrobenzo-[1,2-b:5,4-b′]dithiophene-2-carboxylate]	> 70000 nM	36000 nM	–	–	–	–	IC50 (prostate cancer (PC-3); [11]): > 70000 nM; IC50 [3, 12]: > 70000 nM; IC50 [1, 6]: 36000 nM
≥ 10000 µg/mL	O=C([O][Na+])c1cc2c(s1)C(=O)c1sccc1C2=O [XI-Na, Sodium 4,8-dioxo-4,8-dihydrobenzo-[1,2-b:5,4-b′]dithiophene-2 carboxylate]	–	–	–	–	–	–	–
≥ 6600 µg/mL	C[C@H](NC(=O)c1cc2c(s1)C(=O)c1sccc1C2=O)C(=O)[O-].[Na+] [XIII-Na, Sodium (L)-2-{(4,8-dioxo-4,8-dihydrobenzo-[1,2-b;5,4-b′]dithiophene-2-carbonyl)-amino}-propionate]	–	–	–	–	–	–	–
–	O=C(O)c1cc2c(s1)C(=O)c1ccsc1C2=O [XIV, 4,8-dioxo-4,8-dihydrobenzo-[1,2-b;4,5-b′]dithiophene-2-carboxylic acid]	44400 nM	–	–	25300 nM	44100 nM	38300 nM	IC50 ([2]; Homo sapiens, KBVIN, 72 h): 38300 nM
4000 µg/mL	O=C(O)c1cc2c(s1)C(=O)c1ccsc1C2=O [XIV-NH4, Ammonium 4,8-dioxo-4,8-dihydrobenzo-[1,2-b;4,5-b′]dithiophene-2-carboxylate]	16200 nM	36000 nM	–	–	–	–	IC50 (prostate cancer (PC-3); [11]): 13300 nM; IC50 [3, 12]: 26300 nM; IC50 [1, 6]: 36000 nM
–	C[C@H](NC(=O)c1cc2c(s1)C(=O)c1ccsc1C2=O)C(=O)O [XVI, (L)-2-{(4,8-Dioxo-4,8-dihydrobenzo-[1,2-b;4,5-b′]dithiophene-2-carbonyl)-amino}-propionic acid]	–	–	–	–	–	–	IC50 ([4]; 96 h, HL-60, MTT, treatment for 4 days): 750 nM
≥ 3200 µg/mL	C[C@H](NC(=O)c1cc2c(s1)C(=O)c1ccsc1C2=O)C(=O)[O-].[Na+] [XVI-Na]	–	–	540 nM	170 nM	510 nM	1760 nM	IC50 ([2]; Homo sapiens, KBVIN, 72 h): 540 nM
≥ 2000 µg/mL	CN(C)CCNC(=O)c1cc2c(s1)C(=O)c1sccc1C2=O [XVII-H3PO4, 4,8dioxo-4,8-dihydrobenzo[1,2-b;5,4-b′]dithiophene-2-carboxylate-(2-dimethyl-aminoethyl)-amide phosphoric acid salt]	–	–	–	–	–	–	–

SMILES	solubility (Water solubility)	IC50 (lung carcinoma (A-549); [5])	IC50 [2]	IC50 (lung carcinoma (A-549); [7])	IC50 (prostate cancer (PC-3); [8])	IC50 [3, 9]	IC50 [1, 10]	also measured
O=C([O-])CCC(=O)OCc1cc2c(s1)C(=O)c1sccc1C2=O.[Na+] [IIa-1-Na, Sodium mono-[1-(4,8-dioxo-4,8-dihydrobenzo[1,2-b:5,4-b′]dithiophen-2-yl)-methyl]succinate]	≥ 10000 µg/mL	–	3790 nM	3790 nM	1220 nM	3250 nM	2090 nM	–
O=C([O-])CCCC(=O)OCc1cc2c(s1)C(=O)c1sccc1C2=O.[Na+] [IIa-2-Na, Sodium mono-[1-(4,8-dioxo-4,8-dihydrobenzo[1,2-b:5,4-b′]dithiophen-2-yl)methyl]pentanedioate]	≥ 1800 µg/mL	–	1310 nM	940 nM	890 nM	650 nM	1720 nM	–
CC(OC(=O)CCC(=O)[O-])c1cc2c(s1)C(=O)c1sccc1C2=O.[Na+] (stereo not drawn) [IIb-1-Na, Sodium mono-[1-(4,8-dioxo-4,8-dihydroxybenzo-[1,2-b;5,4-b′]dithiophen-2-yl)-ethyl]succinate]	≥ 3000 µg/mL	–	470 nM	470 nM	370 nM	1830 nM	550 nM	–
CC(OC(=O)CCCC(=O)[O-])c1cc2c(s1)C(=O)c1sccc1C2=O.[Na+] (stereo not drawn) [IIb-2-Na, Sodium mono-[1-(4,8-dioxo-4,8-dihydroxybenzo[1,2-b;5,4-b′]dithiophen-2-yl)-ethyl]pentanedioate]	≥ 9600 µg/mL	–	1130 nM	1890 nM	880 nM	1890 nM	1360 nM	–
CC(OC(=O)CCC(=O)[O-])c1cc2c(s1)C(=O)c1ccsc1C2=O.[Na+] (stereo not drawn) [VII-1-Na, Sodium mono-[1-(4,8-dioxo-4,8-dihydroxybenzo-[1,2-b;4,5-b′]dithiophen-2-yl)-ethyl]succinate]	≥ 10000 µg/mL	–	1960 nM	2220 nM	730 nM	1440 nM	2140 nM	–
CC(OC(=O)CCCC(=O)[O-])c1cc2c(s1)C(=O)c1ccsc1C2=O.[Na+] (stereo not drawn) [VII-2-Na, Sodium mono-[1-(4,8-dioxo-4,8-dihydroxybenzo[1,2-b;4,5-b′]dithiophen-2-yl)-ethyl]pentanedioate]	≥ 3400 µg/mL	–	680 nM	2520 nM	100 nM	880 nM	450 nM	–
